Test results published in PMC4354947 (Journal of medicinal chemistry, 2012).
Like-named read-outs stand apart in the source and are kept apart here. Blank lines part the entries; values can stand above or below the compound they belong to.

Experiments:
[1] = system: human eNPP1; experiment: Resistance to degradation by human eNPP1; assay type: in vitro ADME; conditions: after 20 min, 37 °C, pH 8.5
[2] = target: T1, turkey P2Y1 receptor (Meleagris gallopavo, UniProt P49652); conditions: read-out: EC50 at P2Y1R, cited from earlier work
[3] = system: isolated rat pancreas; conditions: listed as IA; cited from earlier work
[4] = system: insulin secretion; conditions: cited from earlier work
[5] = Chemical stability at acidic pH 1.4; assay type: physicochemical; conditions: pH 1.4, 37 °C, pseudo-first-order model
[6] = system: blood glucose levels; experiment: Oral glucose tolerance test in naive mice; assay type: in vivo, mouse; conditions: OGTT; for effect on blood glucose levels: 30 mg/kg iv
[7] = target: T1, turkey P2Y1 receptor; experiment: Increase in [Ca2+]i in 1321N1 astrocytoma cells expressing turkey P2Y1 receptor; assay type: cell-based
[8] = system: P2Y2 receptor; experiment: Agonist activity at P2Y2 receptor; assay type: cell-based; conditions: data not shown
[9] = system: P2Y4 receptor; experiment: Agonist activity at P2Y4 receptor; assay type: cell-based; conditions: data not shown
[10] = system: P2Y6 receptor; experiment: Agonist activity at P2Y6 receptor; assay type: cell-based; conditions: data not shown
[11] = system: blood glucose levels; experiment: Oral glucose tolerance test in naive rats; assay type: in vivo, rat; conditions: OGTT, 30 mg/kg iv, within 45 min, saline 155 mg/dL
[12] = system: blood glucose levels; experiment: Glucose tolerance test in STZ diabetic mouse model; assay type: in vivo; conditions: STZ diabetic mice, 30 mg/kg iv
[13] = system: blood glucose levels; experiment: Glucose tolerance test in db+/db- diabetic mouse model; assay type: in vivo; conditions: db+/db− mice, 30 mg/kg iv
[14] = system: tail bleeding; experiment: Tail-bleed assay in rats, oral administration; assay type: in vivo, rat; conditions: oral 30 mg/kg, 30 min before tail-cut
[15] = Solubility in aqueous media; assay type: physicochemical
[16] = read-out: EC50 at P2Y1R, increase in [Ca2+]i, human 1321N1 astrocytoma cells, turkey P2Y1R

T1 sequence (P49652 whole entry): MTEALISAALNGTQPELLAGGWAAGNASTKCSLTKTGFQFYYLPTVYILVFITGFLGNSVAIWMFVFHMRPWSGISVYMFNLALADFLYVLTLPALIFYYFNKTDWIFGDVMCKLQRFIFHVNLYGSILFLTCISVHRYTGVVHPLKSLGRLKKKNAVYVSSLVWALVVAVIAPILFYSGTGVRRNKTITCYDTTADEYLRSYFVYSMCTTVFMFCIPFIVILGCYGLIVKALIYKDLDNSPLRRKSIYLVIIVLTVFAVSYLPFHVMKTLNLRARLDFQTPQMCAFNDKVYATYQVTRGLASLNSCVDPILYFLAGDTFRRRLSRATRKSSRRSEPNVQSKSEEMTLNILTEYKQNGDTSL

% hydrolysis of human eNPP1 [1]: 16%
Compound: CSc1nc(N)c2ncn([C@@H]3O[C@H](COP(=O)(O)OP(=O)(O)O)[C@@H](O)[C@H]3O)c2n1 [2-MeS-ADP, reference compound]

% hydrolysis of human eNPP1 [1]: 25%
Compound: Nc1ncnc2c1ncn2[C@@H]1O[C@H](COP(=O)(O)OP(=O)(O)O)[C@@H](O)[C@H]1O [ADP, adenosine 5′ diphosphate, reference compound]

Compound: BP(=O)(OCC1OC(n2cnc3c(N)ncnc32)C(O)C1O)OP(=O)(O)OP(=O)(O)OCC1OC(n2cnc3c(N)ncnc32)C(O)C1O (stereo not drawn) [Ap3(α-B)A]
EC50 ([2]; first-named (A) isomer): 760 nM
EC50 ([2]; second-named (B) isomer): 800 nM

Compound: [BH3-][P@@](=O)(OC[C@H]1O[C@@H](n2cnc3c(N)nc(SC)nc32)[C@H](O)[C@@H]1O)OP(=O)([O-])OP(=O)([O-])[O-].[Na+].[Na+].[Na+].[Na+] [analogue 1A, 2-methylthio-ATP(α-B)]
increase of insulin secretion over basal secretion [3]: up to 9 fold
insulin secretion in vivo [4]: failed to induce insulin secretion in vivo

Compound: [BH3-][P@@](=O)(OC[C@H]1O[C@@H](n2cnc3c(N)ncnc32)[C@H](O)[C@@H]1O)OP(=O)([O-])[O-].[Na+].[Na+].[Na+] [analogue 2A, ADP(α-B)]
% hydrolysis of human eNPP1 [1]: 5%

Compound: [BH3-]P(=O)(OC[C@H]1O[C@@H](n2cnc3c(N)nc(SC)nc32)[C@H](O)[C@@H]1O)OP(=O)([O-])[O-].[Na+].[Na+].[Na+] (stereo partly shown) [analogue 3, 2-Methylthioadenosine 5′-O-(′-Borano)diphosphate]
hydrolysis rate constant at pH 1.4 [5]: 2 × 10^−5 s^−1
effect on blood glucose levels [6]: less effective than analogue 3A alone

Compound: [BH3-][P@@](=O)(OC[C@H]1O[C@@H](n2cnc3c(N)nc(SC)nc32)[C@H](O)[C@@H]1O)OP(=O)([O-])[O-].[Na+].[Na+].[Na+] [analogue 3A, 2-Methylthioadenosine 5′-O-(′-Borano)diphosphate, A Isomer]
EC50 [7]: 38 nM
agonist activity at P2Y2 receptor [8]: no activity
agonist activity at P2Y4 receptor [9]: no activity
agonist activity at P2Y6 receptor [10]: no activity
% hydrolysis of human eNPP1 [1]: 4%
blood glucose level after glucose load [11]: ca. 87 mg/dL
effect on blood glucose levels, dose comparison ([6]; 10 and 30 mg/kg iv): higher dose being more effective at reducing the glucose load
effect on blood glucose levels [12]: lower blood glucose levels to normal values
effect on blood glucose levels [13]: lower blood glucose levels to normal values
bleeding time [14]: increased
tail bleeding blood volume [14]: increased
solubility in aqueous media [15]: highly soluble

Compound: [BH3-][P@](=O)(OC[C@H]1O[C@@H](n2cnc3c(N)nc(SC)nc32)[C@H](O)[C@@H]1O)OP(=O)([O-])[O-].[Na+].[Na+].[Na+] [analogue 3B, 2-Methylthioadenosine 5′-O-(′-Borano)diphosphate, B Isomer]
effect on blood glucose levels [6]: ineffective

Compound: P1-Borano P1,P3-5′-Di-2-methylthioadenosine 5′-Triphosphate [analogue 4]
fold increase in potency at P2Y1R by MeS substitution at C2 ([7]; analogue 4 isomers vs Ap3(α-B)A isomers): 4.6 fold

Compound: P^1-Borano P^1,P^3-5′-Di-2-methylthioadenosine 5′-Triphosphate, A Isomer [analogue 4A]
EC50 [7, 16]: 140 nM

Compound: P^1-Borano P^1,P^3-5′-Di-2-methylthioadenosine 5′-Triphosphate, B Isomer [analogue 4B]
EC50 [7, 16]: 190 nM
